Reference: publication PMC5939190, “The impact of O-glycan chemistry on the stability of intrinsically disordered proteins” (Chemical Science, 2018)
Residues, ends and D or L forms follow the SMILES beside them. No end group written: not given here. *: point of attachment. αMan = OC[C@H]1O[C@H](*)[C@@H](O)[C@@H](O)[C@@H]1O; X2 = OC[C@H]1O[C@H](*)[C@H](O)[C@@H](O)[C@@H]1O; X1 = OC[C@H]1O[C@H](*)[C@H](O)[C@@H](O)[C@H]1O

Tests used:
thermolysin = target: T1, thermolysin (Bacillus thermoproteolyticus, UniProt P00800); assay: Thermolysin digestion of linker variants (half-life to thermolysin degradation, MALDI-TOF MS); format: in vitro ADME; details: for half-life: thermolysin in digestion buffer, average ± spread of three independent trials, quantitative MALDI-TOF MS; for half-life / Half-life to thermolysin degradation, Trial 1 / Half-life to thermolysin degradation, Trial 2 / Half-life to thermolysin degradation, Trial 3: thermolysin 1 µg/µL (25 µL) added to linker 2 µg/µL (25 µL), 50 mM Tris·HCl, 0.5 mM CaCl2, pH 8.0, 37 °C, aliquots 0-420 min; for half-life / Half-life to thermolysin degradation, Trial 2 / Half-life to thermolysin degradation, Trial 3: first-order exponential decay fit; for Half-life to thermolysin degradation, Trial 1: trial 1 of three independent trials, first-order exponential decay fit of full-length linker; for Half-life to thermolysin degradation, Trial 1 / Half-life to thermolysin degradation, Trial 2 / Half-life to thermolysin degradation, Trial 3: quantitative MALDI-TOF MS with internal standard; for Half-life to thermolysin degradation, Trial 2: trial 2 of three independent trials; for Half-life to thermolysin degradation, Trial 3: trial 3 of three independent trials
T1 sequence (P00800 233-548): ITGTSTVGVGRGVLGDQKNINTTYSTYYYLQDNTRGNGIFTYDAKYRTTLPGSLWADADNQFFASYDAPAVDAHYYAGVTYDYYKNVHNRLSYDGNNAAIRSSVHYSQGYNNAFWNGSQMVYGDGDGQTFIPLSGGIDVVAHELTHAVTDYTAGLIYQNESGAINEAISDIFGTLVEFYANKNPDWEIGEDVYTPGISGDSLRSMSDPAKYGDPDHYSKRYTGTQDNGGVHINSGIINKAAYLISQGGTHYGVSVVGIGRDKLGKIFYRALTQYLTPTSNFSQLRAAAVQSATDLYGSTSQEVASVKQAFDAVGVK
Source text: O-Mannosylation is strongly preferred for proteolysis protection of a model fungal IDP. To investigate how glycan identity affects IDP proteolytic stability, we employed the naturally O-mannosylated linker from the Trichoderma reesei glycoside hydrolase family 7 cellobiohydrolase, TrCel7A, as a model.[10] This enzyme is one of the most important industrial cellulases and its linker is a well-studied O-mannosylated IDP.[11]–[14] The α-anomeric configuration was chosen since it is the only type reported so far in reducing terminal mannose residues of O-mannosylated proteins from fungi and yeasts.[8] We used […] glycopeptide synthesis[12],[15],[16] to produce four variants (Fig. 1), including the non-glycosylated linker, and measured the half-life to thermolysin degradation with MALDI-TOF MS (Fig. S1–S4 ^†).[15]–[19] […]
1.1. Experimental material and equipm ent
All commercial reagents and solvents were used as received. All LC-MS analyses were performed using a Waters Acquity TM Ultra Performance LC system equipped with Acquity UPLC® BEH 300 C4, 1.7µm, 2.1 x 100 mm column at flow rates of 0.3 mL/min. The mobile phase for LC -MS analysis was a mixture of H2O (0.1% formic acid, v /v, A) and acetonitrile (0.1% formic acid, v/v, B). […]
Mass spectrometric analysis done with a Waters SYNAPT G2-S LC-MS system was us ed to confirm the identity and homogeneity of the synthetic peptides. MALDI-TOF mas s spectrometr ic analysis done with an AB/Sciex Voyager DE-STR system was used to determine the proteolytic stability (half-life to thermolysin degradation) of the synthetic peptides (Fig. S1-S4). […]
1.3. General procedure for the thermolysin digestion of linker variants The thermolysin digestions were performed following previously described procedures.2 The digestion s of glycosylated linkers were carried out at 37 °C in 25 µL of digestion buffer (50 mM Tris·HCl buffer, 0.5 mM CaCl2, pH 8.0) with an initial linker concentration of 2 µg/µL. 25 µL of thermolysin (1 µg/µL in the digestion buffer) was added to linker solution; 1 µL aliquots were taken at specific time intervals (0, […]
µL of acetonitrile/H2O/AcOH (20/20/1, v/v) and 3 µL of standard solution [0.17 µg/µL non-glycosylated linker in acetonitrile/H2O/AcOH (20/20/1, v/v)]. Each sample was analyzed by quantitative MALDI-TOF MS to calculate the change in concentration of glycosylated linkers with time. The digestion rate was determined by monitoring and fitting data to the first-order exponential decay of the full-length glycosylated linkers over time. Digestion and analysis of non-glycosylat ed linker was done exactly a s described above for glycosylated linkers except that the Lman was used as the internal standard. All the digestion processes were repeated for three independent trials.
1.4. Temperature replica exchange simulations
Model syst ems. This work compares the dynamical and structural behavior of four variants of the Cel7A linker from Trichoderma reesei (TrCel7A). This set includes the non-glycosylated linker and the linker homogeneously decorated with O-linked α-mannosyl, α-glucosyl, and α-galactosyl moieties (Fig. S9A).
Complementary simulations and analyses were also performed with the linker decorated with longer glycans comprising mannobiosyl and galactobiosyl moieties, as well as with the putative natural decoration proposed by Harrison et al.3 (Fig. S9B) . A set of four variants of the “PT linker” was also studied, including the non -glycosylated linker and the variants with the same three glycans (Fig. S9C).
Finally, we also performed simulations of tripeptides with a single site of glyco sylation, resulting in the […]

C[C@H](NC(=O)[C@@H]1CCCN1C(=O)[C@H](CCCNC(=N)N)NC(=O)[C@H](CCCNC(=N)N)NC(=O)[C@@H](NC(=O)[C@@H](NC(=O)[C@@H](NC(=O)[C@@H](NC(=O)CNC(=O)[C@@H]1CCCN1C(=O)[C@@H]1CCCN1C(=O)[C@H](CC(N)=O)NC(=O)CNC(=O)CNC(=O)[C@@H]1CCCN1C(=O)[C@@H]1CCCN1C(=O)[C@H](CC(N)=O)NC(=O)CN)[C@@H](C)O[C@H]1O[C@H](CO)[C@@H](O)[C@H](O)[C@@H]1O)[C@@H](C)O[C@H]1O[C@H](CO)[C@@H](O)[C@H](O)[C@@H]1O)[C@@H](C)O[C@H]1O[C@H](CO)[C@@H](O)[C@H](O)[C@@H]1O)[C@@H](C)O[C@H]1O[C@H](CO)[C@@H](O)[C@H](O)[C@@H]1O)C(=O)N[C@H](C(=O)N[C@H](C(=O)N[C@H](C(=O)NCC(=O)N[C@@H](CO[C@H]1O[C@H](CO)[C@@H](O)[C@H](O)[C@@H]1O)C(=O)N[C@@H](CO[C@H]1O[C@H](CO)[C@@H](O)[C@H](O)[C@@H]1O)C(=O)N1CCC[C@H]1C(=O)NCC(=O)N1CCC[C@H]1C(=O)O)[C@@H](C)O[C@H]1O[C@H](CO)[C@@H](O)[C@H](O)[C@@H]1O)[C@@H](C)O[C@H]1O[C@H](CO)[C@@H](O)[C@H](O)[C@@H]1O)[C@@H](C)O[C@H]1O[C@H](CO)[C@@H](O)[C@H](O)[C@@H]1O [Lman] (H-GNPPGGNPPGT(αMan)T(αMan)T(αMan)T(αMan)RRPAT(αMan)T(αMan)T(αMan)GS(αMan)S(αMan)PGP-OH; N-terminus and C-terminus assumed)
Improvement of proteolytic stability over the non-glycosylated linker LNG (thermolysin; ratio of half-lives to thermolysin degradation, relative to LNG): 112 fold | Proteolysis protection over the O-galactosylated linker (Lgal) (thermolysin; ratio of half-lives to thermolysin degradation, relative to Lgal): 16 fold | Proteolysis protection over the O-glucosylated linker (Lglc) (thermolysin; ratio of half-lives to thermolysin degradation, relative to Lglc): 3 fold | half-life (thermolysin): 164 ± 32.9 min | Half-life to thermolysin degradation, Trial 1 (thermolysin): 163.9 min | Half-life to thermolysin degradation, Trial 2 (thermolysin): 196.4 min | Half-life to thermolysin degradation, Trial 3 (thermolysin): 130.5 min

GNPPGGNPPGTTTTRRPATTTGSSPGP-OH [LNG]
half-life (thermolysin): 1.5 ± 0.2 min | Half-life to thermolysin degradation, Trial 1 (thermolysin): 1.6 min | Half-life to thermolysin degradation, Trial 2 (thermolysin): 1.5 min | Half-life to thermolysin degradation, Trial 3 (thermolysin): 1.2 min

C[C@H](NC(=O)[C@@H]1CCCN1C(=O)[C@H](CCCNC(=N)N)NC(=O)[C@H](CCCNC(=N)N)NC(=O)[C@@H](NC(=O)[C@@H](NC(=O)[C@@H](NC(=O)[C@@H](NC(=O)CNC(=O)[C@@H]1CCCN1C(=O)[C@@H]1CCCN1C(=O)[C@H](CC(N)=O)NC(=O)CNC(=O)CNC(=O)[C@@H]1CCCN1C(=O)[C@@H]1CCCN1C(=O)[C@H](CC(N)=O)NC(=O)CN)[C@@H](C)O[C@H]1O[C@H](CO)[C@@H](O)[C@H](O)[C@H]1O)[C@@H](C)O[C@H]1O[C@H](CO)[C@@H](O)[C@H](O)[C@H]1O)[C@@H](C)O[C@H]1O[C@H](CO)[C@@H](O)[C@H](O)[C@H]1O)[C@@H](C)O[C@H]1O[C@H](CO)[C@@H](O)[C@H](O)[C@H]1O)C(=O)N[C@H](C(=O)N[C@H](C(=O)N[C@H](C(=O)NCC(=O)N[C@@H](CO[C@H]1O[C@H](CO)[C@@H](O)[C@H](O)[C@H]1O)C(=O)N[C@@H](CO[C@H]1O[C@H](CO)[C@@H](O)[C@H](O)[C@H]1O)C(=O)N1CCC[C@H]1C(=O)NCC(=O)N1CCC[C@H]1C(=O)O)[C@@H](C)O[C@H]1O[C@H](CO)[C@@H](O)[C@H](O)[C@H]1O)[C@@H](C)O[C@H]1O[C@H](CO)[C@@H](O)[C@H](O)[C@H]1O)[C@@H](C)O[C@H]1O[C@H](CO)[C@@H](O)[C@H](O)[C@H]1O [Lglc] (H-GNPPGGNPPGT(X2)T(X2)T(X2)T(X2)RRPAT(X2)T(X2)T(X2)GS(X2)S(X2)PGP-OH; N-terminus and C-terminus assumed)
half-life (thermolysin): 53.7 ± 8.1 min | Half-life to thermolysin degradation, Trial 1 (thermolysin): 53.3 min | Half-life to thermolysin degradation, Trial 2 (thermolysin): 62.0 min | Half-life to thermolysin degradation, Trial 3 (thermolysin): 45.9 min

C[C@H](NC(=O)[C@@H]1CCCN1C(=O)[C@H](CCCNC(=N)N)NC(=O)[C@H](CCCNC(=N)N)NC(=O)[C@@H](NC(=O)[C@@H](NC(=O)[C@@H](NC(=O)[C@@H](NC(=O)CNC(=O)[C@@H]1CCCN1C(=O)[C@@H]1CCCN1C(=O)[C@H](CC(N)=O)NC(=O)CNC(=O)CNC(=O)[C@@H]1CCCN1C(=O)[C@@H]1CCCN1C(=O)[C@H](CC(N)=O)NC(=O)CN)[C@@H](C)O[C@H]1O[C@H](CO)[C@H](O)[C@H](O)[C@H]1O)[C@@H](C)O[C@H]1O[C@H](CO)[C@H](O)[C@H](O)[C@H]1O)[C@@H](C)O[C@H]1O[C@H](CO)[C@H](O)[C@H](O)[C@H]1O)[C@@H](C)O[C@H]1O[C@H](CO)[C@H](O)[C@H](O)[C@H]1O)C(=O)N[C@H](C(=O)N[C@H](C(=O)N[C@H](C(=O)NCC(=O)N[C@@H](CO[C@H]1O[C@H](CO)[C@H](O)[C@H](O)[C@H]1O)C(=O)N[C@@H](CO[C@H]1O[C@H](CO)[C@H](O)[C@H](O)[C@H]1O)C(=O)N1CCC[C@H]1C(=O)NCC(=O)N1CCC[C@H]1C(=O)O)[C@@H](C)O[C@H]1O[C@H](CO)[C@H](O)[C@H](O)[C@H]1O)[C@@H](C)O[C@H]1O[C@H](CO)[C@H](O)[C@H](O)[C@H]1O)[C@@H](C)O[C@H]1O[C@H](CO)[C@H](O)[C@H](O)[C@H]1O [Lgal] (H-GNPPGGNPPGT(X1)T(X1)T(X1)T(X1)RRPAT(X1)T(X1)T(X1)GS(X1)S(X1)PGP-OH; N-terminus and C-terminus assumed)
enhancement of protection against proteolysis relative to non-glycosylated parent IDP: 10 fold | half-life (thermolysin): 9.8 ± 2 min | Half-life to thermolysin degradation, Trial 1 (thermolysin): 8.5 min | Half-life to thermolysin degradation, Trial 2 (thermolysin): 8.8 min | Half-life to thermolysin degradation, Trial 3 (thermolysin): 12.1 min
